Results: patent publication US8134015B2, “Compound inhibiting in vivo phosphorous transport and medicine containing the same” (Kyowa Hakko Kirin Co., Ltd., priority 2003, dated 2012)
Counter-ions that a name gives are not always drawn.

These compounds were tested against T1, rat NaPi-2b (Rattus norvegicus, UniProt Q9JJ09) (assay: Sodium-dependent phosphate uptake of Xenopus oocytes which expressed NaPi-2b (32P)). Settings: Xenopus oocytes expressing rat NaPi-2b, 32P radioactive phosphorus; read-out: IC50 (phosphate uptake inhibitory activity).
T1 construct: expressed in transfected cells; host or cells: Xenopus oocytes injected with cRNA
T1 sequence (Q9JJ09 1-695): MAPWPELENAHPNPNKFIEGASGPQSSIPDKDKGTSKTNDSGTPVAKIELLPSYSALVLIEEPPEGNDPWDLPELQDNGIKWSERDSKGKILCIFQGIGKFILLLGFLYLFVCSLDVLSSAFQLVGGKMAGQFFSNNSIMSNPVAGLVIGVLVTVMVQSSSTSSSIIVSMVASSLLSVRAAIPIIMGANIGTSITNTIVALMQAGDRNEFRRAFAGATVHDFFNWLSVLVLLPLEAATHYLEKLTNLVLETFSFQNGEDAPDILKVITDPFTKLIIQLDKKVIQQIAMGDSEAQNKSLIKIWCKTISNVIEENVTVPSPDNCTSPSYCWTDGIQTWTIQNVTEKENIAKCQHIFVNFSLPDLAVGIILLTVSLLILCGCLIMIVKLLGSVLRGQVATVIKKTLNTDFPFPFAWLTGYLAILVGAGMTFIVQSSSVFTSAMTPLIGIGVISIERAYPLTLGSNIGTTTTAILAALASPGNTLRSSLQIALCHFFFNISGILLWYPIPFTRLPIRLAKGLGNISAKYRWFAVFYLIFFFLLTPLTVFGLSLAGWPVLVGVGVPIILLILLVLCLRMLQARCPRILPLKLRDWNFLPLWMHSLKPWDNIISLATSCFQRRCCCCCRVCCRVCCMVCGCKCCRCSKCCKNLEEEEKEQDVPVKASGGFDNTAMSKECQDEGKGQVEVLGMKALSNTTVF
Assay type: cell-based
How it was run: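 Percent inhibition at 300 μM and 100 μM comes from the same inhibition curve of 32P uptake. Assay used oocytes expressing rat NaPi-2b after 2 days of culture.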

IC50 [µM]	Compound
3.57	Cc1ccc(/C=N/NC(=O)c2cc(Br)ccc2NC(=O)c2cccnc2)cc1 [Compound 175, N-[4-Bromo-2-(4-methyl-benzylidene-hydrazinocarbonyl)-phenyl]-nicotinamide]
4.1	Cc1ccc(/C=N/NC(=O)c2cc(Br)ccc2NC(=O)c2cccnc2)cc1C [Compound 176, N-[4-Bromo-2-(3,4-dimethyl-benzylidene-hydrazinocarbonyl)-phenyl]-nicotinamide]
26	O=C(Nc1ccc(Br)cc1C(=O)N/N=C/c1ccc(Cl)c(C(F)(F)F)c1)c1cccnc1 [Compound 177, N-[4-Bromo-2-(4-chloro-3-trifluoromethyl-benzylidene-hydrazinocarbonyl)-phenyl]-nicotinamide]
7.54	CCc1ccc(C(=O)Nc2ccc(Br)cc2C(=O)N/N=C/c2cccc(F)c2)cc1 [Compound 178, N-[4-Bromo-2-(3-fluoro-benzylidene-hydrazinocarbonyl)-phenyl]-4-ethyl-benzamide]
18.7	CCc1ccc(C(=O)Nc2ccc(Br)cc2C(=O)N/N=C/c2ccc(F)cc2)cc1 [Compound 179, N-[4-Bromo-2-(4-fluoro-benzylidene-hydrazinocarbonyl)-phenyl]-4-ethyl-benzamide]
< 3	CCc1ccc(C(=O)Nc2ccc(Br)cc2C(=O)N/N=C/c2cccc(C)c2)cc1 [Compound 180, N-[4-Bromo-2-(3-methyl-benzylidene-hydrazinocarbonyl)-phenyl]-4-ethyl-benzamide]
3.16	CCc1ccc(C(=O)Nc2ccc(Br)cc2C(=O)N/N=C/c2ccc(C)cc2)cc1 [Compound 181, N-[4-Bromo-2-(4-methyl-benzylidene-hydrazinocarbonyl)-phenyl]-4-ethyl-benzamide]
10.2	CCc1ccc(C(=O)Nc2ccc(Br)cc2C(=O)N/N=C/c2ccc(C)c(C)c2)cc1 [Compound 182, N-[4-Bromo-2-(3,4-dimethyl-benzylidene-hydrazinocarbonyl)-phenyl]-4-ethyl-benzamide]
< 3	CCc1ccc(C(=O)Nc2ccc(Br)cc2C(=O)N/N=C/c2ccc(Cl)c(C(F)(F)F)c2)cc1 [Compound 183, N-[4-Bromo-2-(4-chloro-3-trifluoromethyl-benzylidene-hydrazinocarbonyl)-phenyl]-4-ethyl-benzamide]
4.01	O=C(Nc1ccc(Cl)cc1C(=O)N/N=C/c1cccc(F)c1)c1cccnc1 [Compound 184, N-[4-Chloro-2-(3-fluoro-benzylidene-hydrazinocarbonyl)-phenyl]-nicotinamide]
2.02	O=C(Nc1ccc(Cl)cc1C(=O)N/N=C/c1ccc(F)cc1)c1cccnc1 [Compound 185, N-[4-Chloro-2-(4-fluoro-benzylidene-hydrazinocarbonyl)-phenyl]-nicotinamide]
10.1	Cc1cccc(/C=N/NC(=O)c2cc(Cl)ccc2NC(=O)c2cccnc2)c1 [Compound 186, N-[4-Chloro-2-(3-methyl-benzylidene-hydrazinocarbonyl)-phenyl]-nicotinamide]
7.87	Cc1ccc(/C=N/NC(=O)c2cc(Cl)ccc2NC(=O)c2cccnc2)cc1 [Compound 187, N-[4-Chloro-2-(4-methyl-benzylidene-hydrazinocarbonyl)-phenyl]-nicotinamide]
19.4	Cc1ccc(/C=N/NC(=O)c2cc(Cl)ccc2NC(=O)c2cccnc2)cc1C [Compound 188, N-[4-Chloro-2-(3,4-dimethyl-benzylidene-hydrazinocarbonyl)-phenyl]-nicotinamide]
1.47	O=C(Nc1ccc(Cl)cc1C(=O)N/N=C/c1ccc(Cl)c(C(F)(F)F)c1)c1cccnc1 [Compound 189, N-[4-Chloro-2-(4-chloro-3-trifluoromethyl-benzylidene-hydrazinocarbonyl)-phenyl]-nicotinamide]
20.3	O=C(Nc1ccc(Cl)cc1C(=O)N/N=C/c1ccc(F)cc1)c1ccncc1 [Compound 190, N-[4-Chloro-2-(4-fluoro-benzylidene-hydrazinocarbonyl)-phenyl]-isonicotinamide]
12.1	Cc1cccc(/C=N/NC(=O)c2cc(Cl)ccc2NC(=O)c2ccncc2)c1 [Compound 191, N-[4-Chloro-2-(3-methyl-benzylidene-hydrazinocarbonyl)-phenyl]-isonicotinamide]

IC50 [µM]	Compound
23.1	Cc1ccc(/C=N/NC(=O)c2cc(Cl)ccc2NC(=O)c2ccncc2)cc1 [Compound 192, N-[4-Chloro-2-(4-methyl-benzylidene-hydrazinocarbonyl)-phenyl]-isonicotinamide]
4.21	Cc1ccc(/C=N/NC(=O)c2cc(Cl)ccc2NC(=O)c2ccncc2)cc1C [Compound 193, N-[4-Chloro-2-(3,4-dimethyl-benzylidene-hydrazinocarbonyl)-phenyl]-isonicotinamide]
7.36	O=C(Nc1ccc(Cl)cc1C(=O)N/N=C/c1ccc(Cl)c(C(F)(F)F)c1)c1ccncc1 [Compound 194, N-[4-Chloro-2-(4-chloro-3-trifluoromethyl-benzylidene-hydrazinocarbonyl)-phenyl]-isonicotinamide]
0.98	O=C(Nc1ccc(Br)cc1C(=O)N/N=C/c1cccc(F)c1)c1cccc(CSc2ccncc2)c1 [Compound 195, N-[4-Bromo-2-(3-fluoro-benzylidene-hydrazinocarbonyl)-phenyl]-3-(pyridin-4-ylsulfanylmethyl)-benzamide]
0.61	O=C(Nc1ccc(Br)cc1C(=O)N/N=C/c1ccc(F)cc1)c1cccc(CSc2ccncc2)c1 [Compound 196, N-[4-Bromo-2-(4-fluoro-benzylidene-hydrazinocarbonyl)-phenyl]-3-(pyridin-4-ylsulfanylmethyl)-benzamide]
4.87	Cc1cccc(/C=N/NC(=O)c2cc(Br)ccc2NC(=O)c2cccc(CSc3ccncc3)c2)c1 [Compound 197, N-[4-Bromo-2-(3-methyl-benzylidene-hydrazinocarbonyl)-phenyl]-3-(pyridin-4-ylsulfanylmethyl)-benzamide]
2.71	Cc1ccc(/C=N/NC(=O)c2cc(Br)ccc2NC(=O)c2cccc(CSc3ccncc3)c2)cc1 [Compound 198, N-[4-Bromo-2-(4-methyl-benzylidene-hydrazinocarbonyl)-phenyl]-3-(pyridin-4-ylsulfanylmethyl)-benzamide]
1.82	Cc1ccc(/C=N/NC(=O)c2cc(Br)ccc2NC(=O)c2cccc(CSc3ccncc3)c2)cc1C [Compound 199, N-[4-Bromo-2-(3,4-dimethyl-benzylidene-hydrazinocarbonyl)-phenyl]-3-(pyridin-4-ylsulfanylmethyl)-benzamide]
0.39	O=C(Nc1ccc(Br)cc1C(=O)N/N=C/c1ccc(Cl)c(C(F)(F)F)c1)c1cccc(CSc2ccncc2)c1 [Compound 200, N-[4-Bromo-2-(4-chloro-3-trifluoromethyl-benzylidene-hydrazinocarbonyl)-phenyl]-3-(pyridin-4-ylsulfanylmethyl)-benzamide]
11.1	COc1ccc(C(=O)Nc2ccc(Br)cc2C(=O)N/N=C/c2cccn2C)cc1OC [Compound 201, N-[4-Bromo-2-(1-methyl-1H-pyrrol-2-ylmethylene-hydrazinocarbonyl)-phenyl]-3,4-dimethoxy-benzamide]
3.14	COc1ccc(C(=O)Nc2ccc(Br)cc2C(=O)N/N=C/c2cc(C)c(C)o2)cc1OC [Compound 202, N-[4-Bromo-2-(4,5-dimethyl-furan-2-ylmethylene-hydrazinocarbonyl)-phenyl]-3,4-dimethoxy-benzamide]
< 3	Cc1ccc(/C=N/NC(=O)c2ccccc2NC(=O)c2ccncc2)cc1 [Compound 203, N-[2-(4-Methyl-benzylidene-hydrazinocarbonyl)-phenyl]-isonicotinamide hydrochloride]
< 3	COc1ccc(C(=O)Nc2ccc(I)cc2C(=O)N/N=C/c2cccc(F)c2)cc1OC [Compound 204, N-[2-(3-Fluoro-benzylidene-hydrazinocarbonyl)-4-iodo-phenyl]-3,4-dimethoxy-benzamide]
< 3	COc1ccc(C(=O)Nc2ccc(I)cc2C(=O)N/N=C/c2ccc(F)cc2)cc1OC [Compound 205, N-[2-(4-Fluoro-benzylidene-hydrazinocarbonyl)-4-iodo-phenyl]-3,4-dimethoxy-benzamide]
< 3	COc1ccc(C(=O)Nc2ccc(I)cc2C(=O)N/N=C/c2cccc(C)c2)cc1OC [Compound 206, N-[4-Iodo-2-(3-methyl-benzylidene-hydrazinocarbonyl)-phenyl]-3,4-dimethoxy-benzamide]
< 1	COc1ccc(C(=O)Nc2ccc(I)cc2C(=O)N/N=C/c2ccc(C)cc2)cc1OC [Compound 207, N-[4-Iodo-2-(4-methyl-benzylidene-hydrazinocarbonyl)-phenyl]-3,4-dimethoxy-benzamide]
< 0.3	COc1ccc(C(=O)Nc2ccc(I)cc2C(=O)N/N=C/c2ccc(C)c(C)c2)cc1OC [Compound 208, N-[2-(3,4-Dimethyl-benzylidene-hydrazinocarbonyl)-4-iodo-phenyl]-3,4-dimethoxy-benzamide]
